From US20250257034A1, “INDOLE DERIVATIVES AS SEROTONERGIC AGENTS USEFUL FOR THE TREATMENT OF DISORDERS RELATED THERETO” (priority 2023, published 2025)
Where two headings read alike, the source gives them in different places.

Experiments:
human 5-HT2A receptor [1] = biological target: T1, human 5-HT2A receptor (Homo sapiens, UniProt P28223); assay: Human 5-HT2A functional FLIPR assay (agonist mode); assay type: cell-based; set-up: expressed in transfected cells; host or cells: HTR2A&Gα15-HEK293 (tetracycline induction)
T1 sequence (P28223 whole entry): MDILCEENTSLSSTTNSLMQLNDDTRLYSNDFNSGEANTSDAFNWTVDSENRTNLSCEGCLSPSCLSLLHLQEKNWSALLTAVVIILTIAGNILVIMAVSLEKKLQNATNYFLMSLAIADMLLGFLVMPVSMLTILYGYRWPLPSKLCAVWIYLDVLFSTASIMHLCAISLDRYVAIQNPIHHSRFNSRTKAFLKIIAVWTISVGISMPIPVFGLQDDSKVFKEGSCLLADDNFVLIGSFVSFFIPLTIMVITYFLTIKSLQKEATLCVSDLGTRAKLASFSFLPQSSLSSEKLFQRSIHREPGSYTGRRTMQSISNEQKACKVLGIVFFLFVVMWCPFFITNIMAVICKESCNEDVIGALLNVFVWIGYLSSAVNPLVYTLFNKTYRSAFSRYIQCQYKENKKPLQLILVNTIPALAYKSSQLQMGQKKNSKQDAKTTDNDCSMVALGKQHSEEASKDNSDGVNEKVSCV
Protocol: The potential excitatory effects of compounds targeting on human 5-hydroxytryptamine receptor 2A (5-HT2A) under agonist mode was assessed.
HTR2A&Gα15-HEK293 cells were cultured in DMEM medium containing 10% dialyzed FBS and 1×penicillin-streptomycin, 100 μg/mL Hygromycin B and 300 μg/mL G418. The cells were passaged about three times a week, maintained between ˜30% to ˜90% confluence.
1. The cell culture medium (DMEM medium containing 10% dialyzed FBS and 1×penicillin-streptomycin, 100 μg/mL Hygromycin B and 300 μg/mL G418), TrypLE™ Express and DPBS to R.T. was warmed in advance.
2. For induction, 1 μg/ml tetracycline (final concentration) was added to cell culture medium and incubated for 48 hours prior to seeding cells into plate at 37° C., 5% (v/v) C02. The cell culture medium was removed from flask. Cells were washed with DPBS.
3. 2 mL TrypLE™ Express was added to the flask, mixed well by gentle shaking and cells were incubated at 37° C. for a few minutes.
4. The cells were checked for morphological change under microscope, the digestion was stopped by adding 4 mL cell culture medium to the flask when most of cells turned to round.
5. The cell suspension was transferred into a 15 mL centrifuge tube, and then centrifuged at 1,200 rpm for 5 minutes.
6. The supernatant was removed. The cell pellet was resuspended with 2 mL cell culture medium.
7. The cell density was counted using cell counter.
9. 30 μL/well cell suspensions added into a 384-well cell plate (The cell density was 20,000 cells/well).
10. The cell plate was incubated overnight at 37° C., 5% (v/v) CO2.
On the day of experiments, culture medium was removed from the cell plate.
10 μL of assay buffer (20 mM HEPES, in 1x HBSS, pH 7.4) was added to each well of the cell plate.
2×dye solution was prepared following the manual of the F LIP R® Calcium 6 Assay Kit: • i. The dye was diluted with assay buffer. • ii. Probenecid was added to the final concentration of 5 mM. • iii. Vortexed vigorously for I-2 minutes.
4. 10 μL of 2x dye solution was added to each well of the cell plate.
5. The cell plate was placed on plate shaker, followed by shaking at 600 rpm for 2 minutes.
6. The plate was incubated at 37° C. for 2 hours followed by an additional 15-minute incubation at 25° C.
1. Serotonin HCl was prepared to the concentration of 10 mM with DMSO.
2. The test compounds were prepared to the concentration of 10 mM with DMSO.
3. The compounds were added to a 384-well compound source plate.
4. 3-folds serial dilutions were performed with DMSO.
5. 90 nL/well of serial diluted compounds was transferred from source plate to a 384-well compound plate by using an Echo.
6. 30 μL/well of assay buffer (20 mM HEPES in 1x HBSS, pH 7.4) was added to the compound plate.
7. The plate was mixed on-plate shaker for 2 minutes.
1. After the cells were incubated with dye solution, the cell plate, compound plate containing 3×compounds and F LIP R tips were placed into F LIP R.
2. 10 μL of 3×compounds transferred from the compound plate to the cell plate by FLIP R.
3. The plate was read for 160 sec with 1 sec interval and the data of agonist mode was obtained.
1. The normalized fluorescence reading (RFU) was calculated as shown below, wherein F max and F min stand for maximum and minimum of calcium signal during defined time window:
2. EC50 by fitting R F U against log of compound concentrations with Hill equation was calculated using XLfit.
The potential excitatory effects of compounds targeting human 5-hydroxytryptamine receptor 2A (5-HT2A) under agonist mode was assessed.
2. For induction, 1 μg/ml tetracycline (final concentration) was added to cell culture medium and incubated for 48 hours prior to seeding cells into plate at 37° C., 5% (v/v) CO2. The cell culture medium was removed from flask. Cells were washed with DPBS.
1. On the day of experiments, culture medium was removed from the cell plate.
2. 10 μL of assay buffer (20 mM HEPES, in 1×HBSS, pH 7.4) was added to each well of the cell plate.

human 5-HT2A receptor [2] = biological target: T1, human 5-HT2A receptor; assay: Human 5-HT2A radioligand binding assay ([3H]-ketanserin); set-up: expressed in transfected cells; host or cells: HTR2A&Gα15-HEK293 (tetracycline induction)
Protocol: The objective of this study was to evaluate the binding properties of exemplary compounds of Formula (I) on 5-hydroxytryptamine receptor 2A (5-HT2A).
1. The assay buffer was prepared following Table 13 below.
Adjust pH to 7.4 followed by […] sterile filtration
2. 8 doses of reference and test compounds starting from 10 mM stock solution as required was prepared by 5-fold serial dilutions with 100% (v/v) DMSO.
3. UniFilter-96 GF/B plate was pretreated: • i. 50 μl/well of 0.5% (v/v) PEI was added to UniFilter-96 […] plates. The plates were sealed and incubated at 4° C. for 3 hrs. • ii. After incubation, the plates were washed 3 times with ice-cold wash buffer (50 mM Tris, pH7.4).
4. The assay plate was prepared: • i. Cell membrane was diluted with assay buffer and 330 μl/well was added to 96 round deep well plates to reach a concentration of 20 μg/well. • ii. 8 concentrations of reference or test compounds were prepared and 110 μl/well was added to 96 round deep well plates. • iii. [3H]-ketanserin was diluted with assay buffer to 5 nM (5×final concentration) and 110 μl/well was added to 96 round deep well plates.
5. The plate was centrifuged at 1000 rpm for 30 secs and then agitated at 600 rpm, R.T. for 5 min. […]
7. The incubation was stopped by vacuum filtration onto GF/B filter plates followed by 4 times washing with ice-cold wash buffer (50 mM Tris, pH7.4).
9. The filter plates were sealed and 40 μl/well of scintillation cocktail was added.
10. The plate was read by using a Microbeta^2 microplate counter.
1. For reference and test compounds, the results were expressed as % Inhibition, using the normalization equation: N=100−100×(U-C2)/(C1-C2), where U is the unknown value, C1 is the average of high controls, and C2 is the average of low controls.
2. The IC50 was determined by fitting percentage of inhibition as a function of compound concentrations with Hill equation using XLfit. […]

[3] = FLIPR calcium, agonist mode, HTR2A&Gα15-HEK293 cells (Table 39), read-out: h5-HT2A, EC50
[4] = [3H]-ketanserin displacement (Table 43), read-out: h5-HT2A, IC50

| Structure (SMILES) | RFU@10 μM (human 5-HT2A receptor [1]; RFU=Fmax−Fmin (Table 39)) | IC50 (human 5-HT2A receptor [2]) [µM] | EC50 (human 5-HT2A receptor [1]) [µM] | RFU@10 μM (human 5-HT2A receptor [1]; RFU=Fmax−Fmin (Table 9)) | EC50 (human 5-HT2A receptor [1]; [3]) [µM] | IC50 (human 5-HT2A receptor [2]; [4]) [µM] | EC50 (human 5-HT2A receptor [1]; FLIPR calcium, agonist mode, HTR2A&Gα15-HEK293 cells (Table 9), read-out: h5-HT2A, EC50) [µM] | IC50 (human 5-HT2A receptor [2]; [3H]-ketanserin displacement (Table 14), read-out: h5-HT2A, IC50) [µM] |
| --- | --- | --- | --- | --- | --- | --- | --- | --- |
| COc1ccc2[nH]cc(CCN3CC[C@@H](OC)C3)c2c1 [(R) I-66, (R)-5-methoxy-3-(2-(3-methoxypyrrolidin-1-yl)ethyl)-1H-indole] | 752 RFU | 4.25 |  |  |  |  |  |  |
| COc1ccc2[nH]cc(CCN3CC[C@@H](OC(F)F)C3)c2c1 [(R) I-67, (R)-3-(2-(3-(Difluoromethoxy)pyrrolidin-1-yl)ethyl)-5-methoxy-1H-indole] | 225 RFU | 4.08 |  |  |  |  |  |  |
| COc1ccc2[nH]cc(CCN3CC[C@H](OC(F)F)C3)c2c1 [(S) I-67, (S)-3-(2-(3-(Difluoromethoxy)pyrrolidin-1-yl)ethyl)-5-methoxy-1H-indole] | 2,147 RFU | 4.88 | 0.994 |  |  |  |  |  |
| [2H]C([2H])([2H])N(CCc1c[nH]c2ccc(SC)cc12)C([2H])([2H])[2H] [Compound I-1, N,N-Bis(methyl-d3)-2-(5-(methylthio)-1H-indol-3-yl)ethan-1-amine] |  | 0.392 | 0.045 | 7,177 RFU |  |  |  |  |
| CCN(CC)CCc1c[nH]c2ccc(SC)cc12 [Compound I-12, N,N-Diethyl-2-(5-(methylthio)-1H-indol-3-yl)ethan-1-amine] |  | 0.78 | 0.077 | 1,041 RFU |  |  |  |  |
| CCN(C)CCc1c[nH]c2ccc(SC)cc12 [Compound I-13, N-Ethyl-N-methyl-2-(5-(methylthio)-1H-indol-3-yl)ethan-1-amine] |  | 0.253 | 0.018 | 726 RFU |  |  |  |  |
| CSc1ccc2[nH]cc(CCN(C(C)C)C(C)C)c2c1 [Compound I-17, N-Isopropyl-N-(2-(5-(methylthio)-1H-indol-3-yl)ethyl)propan-2-amine] |  | 1.98 | 0.037 | 8,546 RFU |  |  |  |  |
| CSc1ccc2[nH]cc(CCN(C)C(C)C)c2c1 [Compound I-19, N-Methyl-N-(2-(5-(methylthio)-1H-indol-3-yl)ethyl)propan-2-amine] |  | 0.936 | 0.033 | 819 RFU |  |  |  |  |
| COc1ccc2[nH]cc(CCN(C)CCOC(F)F)c2c1 [Compound I-71, 2-(Difluoromethoxy)-N-(2-(5-methoxy-1H-indol-3-yl)ethyl)-N-methylethan-1-amine] | 1,094 RFU |  |  |  | 0.257 | 2.3 |  |  |
| CN(C)CCc1c[nH]c2ccc(OCCOC(F)F)cc12 [Compound I-128, 2-(5-(2-(Difluoromethoxy)ethoxy)-1H-indol-3-yl)-N,N-dimethylethan-1-amine] | 2,159 RFU | 7.83 | 1.21 |  |  |  |  |  |
| CN(CCOC(F)F)CCc1c[nH]c2ccccc12 [Compound I-130, N-(2-(1H-Indol-3-yl)ethyl)-2-(difluoromethoxy)-N-methylethan-1-amine] | 247 RFU |  |  |  |  | 5.68 |  |  |
| CN(C)CCc1c[nH]c2ccccc12 [DMT] | 3,493 RFU |  |  | 3,493 RFU | 0.163 | 0.954 | 0.163 | 0.954 |
